{"source": "patent US12331095B2", "about": "“Inducible T cell receptors and uses thereof” (MEDIGENE IMMUNOTHERAPIES GMBH, priority 2018, dated 2025)", "test_system": "CD8+ PBL", "assay": "Flow cytometry (CD3, BV6-5) for induction of iTCR-NY-ESO on the surface of CD8+ PBL", "type": "cell-based", "conditions": "any of the concentrations tried (data not shown)", "description": "FIG. 9: CD8^+ PBL transduced with iTCR-NY-ESO (MHC-I restricted TCR) or CD8^+ PBL expressing wt-NY-ESO were induced overnight with 1, 5, 10 or 20 μM Endoxifen or were left uninduced (no Endoxifen). 24 h after induction T2 cells loaded with relevant peptide SLLMWITQC (SEQ ID NO: 12) or irrelevant peptide VLDGLDVLL (SEQ ID NO: 11) were added to the cultures. IFN-γ secretion was detected by standard IFN-γ ELISA performed with the culture supernatants 24 h after stimulation with T2 targets. Flow cytometry was performed 48 h after induction and cells were assessed for BFP (transductants), CD3 and BV6-5. Exemplary plots shown are iTCR-NY-ESO transduced CD8^+ PBL without induction or with 20 μM Endoxifen. Plots were generated using the analysis tool FlowJo V10. Graph was plotted using graphPad Prism 7.\nPBL from a healthy donor was enriched for CD8^+ cells using a commercial cell isolation kit (CD8+untouched) and transduced with the lentiviral vector carrying the iTCR-NY-ESO cassette or with the lentiviral vector carrying wt-NY-ESO as positive control. […] CD8^+ cells carrying either iTCR-NY-ESO were induced overnight with 20 μM Endoxifen or left untreated. Cells were then stained for CD3 (CD3-PECy7, SK7, 557851, BD) and the specific V-beta family BV6-5 (antibody: TRBV6-5-PE, IMMU 222, IM2292, Beckman Coulter)."}
{"molecule": "CCC(=C(c1ccc(O)cc1)c1ccc(OCCN(C)C)cc1)c1ccccc1", "note": "[4-Hydroxytamoxifen, 4-(1-[4-(Dimethylaminoethoxy)phenyl]-2-phenyl-1-butenyl)phenol]", "values": [{"measurement": "induction of iTCR-NY-ESO in PBL", "value": "did not induce iTCR-NY-ESO in PBL in any of the concentrations tried"}]}
